According to article PMC2990756, “Quantitative High-Throughput Screening Identifies 8-Hydroxyquinolines as Cell-Active Histone Demethylase Inhibitors” (PLoS ONE, 2010):
Where two headings read alike, the source gives them in different places.

Experiments:
Assay type in all cases: biochemical
JMJD2E (KDM4E) = target: T1, JMJD2E (KDM4E) (Homo sapiens, UniProt B2RXH2); experiment: qHTS fluorescence FDH-coupled JMJD2E demethylase assay
T1 construct: The catalytic domain of human JMJD2E (residues 1–337); His6 (N); made in house; host or cells: E. coli
T1 sequence (B2RXH2 1-337): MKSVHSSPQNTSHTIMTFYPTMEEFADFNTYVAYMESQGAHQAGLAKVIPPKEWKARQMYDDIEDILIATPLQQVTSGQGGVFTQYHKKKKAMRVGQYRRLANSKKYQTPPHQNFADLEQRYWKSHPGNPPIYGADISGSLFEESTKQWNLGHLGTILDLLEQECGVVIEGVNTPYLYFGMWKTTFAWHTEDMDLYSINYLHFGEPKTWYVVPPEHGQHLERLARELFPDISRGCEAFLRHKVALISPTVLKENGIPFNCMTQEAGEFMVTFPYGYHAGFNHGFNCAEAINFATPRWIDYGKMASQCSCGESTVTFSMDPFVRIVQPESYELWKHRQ
Excerpt: The oxidation of formaldehyde is coupled to the reduction of NAD^+ to NADH, which is monitored by fluorescence spectroscopy. […] To this end, initial screening hits were filtered by a combination of cheminformatics (to exclude low-confidence inhibitors and autofluorescent false positives), counterscreening against the coupled-assay component formaldehyde dehydrogenase (FDH), and orthogonal direct detection of inhibition of demethylation by mass spectrometry ( Figure 1 ).
Reactions were initiated with 1 µL addition of peptide substrate solution containing final concentrations of 10 µM FAS, 50 µM 2OG, 0.25 U/mL FDH, 0.25 mM NAD^+, and 50 µM peptide substrate (ARK(me3)STGGK). A ViewLux imager (PerkinElmer, Waltham, MA) was used to measure NADH fluorescence (λex 340 nm, λem 450 nm) immediately after substrate addition and following 30 min incubation at room temperature. To record any systematic drifts in assay behavior (signal window and noise), assay plates containing no library compounds but only DMSO as a vehicle control were tested periodically (every ∼60 plates) throughout the screen.
Data were normalized to the basal response (0% activity) in the absence of enzyme and the maximal response (100% activity) in the absence of compound. Using the Hill equation, dose-response curves and IC50 values were automatically generated for each compound tested with software developed internally (www.ncgc.nih.gov/pub/openhts/curvefit/). […] The initial well fluorescence (first kinetic read) associated with each sample was stored in a database and used in the cheminformatics analysis to identify autofluorescent compounds interfering with the assay signal.

[1] = target: T2, formaldehyde dehydrogenase (FDH) (Pseudomonas putida, UniProt P46154); experiment: FDH coupling enzyme counterscreen
T2 construct: purchased Sigma-Aldrich
Excerpt: Dimethylsulfoxide certified ACS grade (DMSO) was from Fisher, Inc. HEPES buffer was obtained from Gibco. […] Black solid-bottom 1,536-well assay plates were from Greiner Bio-One (Monroe, NC).

JMJD2E = target: T3, JMJD2E (Homo sapiens, UniProt B2RXH2); experiment: JMJD2E FDH-coupled assay under low and high iron conditions (iron chelation profile); design: The catalytic domain of human JMJD2E (residues 1–337); His6 (N); made in house; host or cells: E. coli
T3 sequence (B2RXH2 1-337): T1 sequence (B2RXH2 1-337)
Description: The prioritized compounds were also evaluated in the screening assay using two different ferrous ion concentrations (termed high iron and low iron, respectively), in order to assess their propensity for iron chelation.
The ratio of IC50 values under high iron to low iron was calculated for each compound.

[2] = Table S1, unit not in table, from Figure 2, read-out: qHTS Data: jmjd2e IC50
[3] = Table S1, high iron, head says 20 µM FAS, unit not in table, from Figure 2, read-out: qHTS Data: jmjd2e fas20um IC50
[4] = Table S1, low iron 2.5 µM FAS, unit not in table, from Figure 2, read-out: qHTS Data: jmjd2e fas2.5um IC50
[5] = Table S1, FDH counterscreen, unit not in table, from Figure 2, read-out: qHTS Data: jmjd2e fdh IC50

T2 sequence (P46154 whole entry): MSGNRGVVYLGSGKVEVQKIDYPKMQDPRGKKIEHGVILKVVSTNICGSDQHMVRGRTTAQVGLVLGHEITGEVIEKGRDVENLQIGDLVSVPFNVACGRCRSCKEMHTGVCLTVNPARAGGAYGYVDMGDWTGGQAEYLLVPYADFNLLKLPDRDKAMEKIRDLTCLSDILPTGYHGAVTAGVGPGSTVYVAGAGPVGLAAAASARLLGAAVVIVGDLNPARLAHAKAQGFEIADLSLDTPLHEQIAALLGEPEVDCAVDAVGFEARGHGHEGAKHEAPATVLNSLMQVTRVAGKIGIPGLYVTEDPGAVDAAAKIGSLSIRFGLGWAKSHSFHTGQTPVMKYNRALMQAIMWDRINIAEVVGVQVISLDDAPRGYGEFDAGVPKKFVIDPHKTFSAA

Compound | IC50 (JMJD2E (KDM4E); [2]) [µM] | qHTS Data: jmjd2e fdh CurveClass ([1]; Table S1, FDH counterscreen) | IC50 (JMJD2E; [3]) [µM] | IC50 (JMJD2E; [4]) [µM] | qHTS Data: jmjd2e fas20um CurveClass (JMJD2E; Table S1, high iron) | IC50 [1, 5] [µM] | IC50 (JMJD2E (KDM4E); Figure 2, 100 nM JMJD2E, 10 µM FAS, read-out: IC50 values in μM, qHTS) [µM] | IC50 ([1]; Figure 2, 0.025 U/mL FDH, 10 µM formaldehyde, read-out: IC50 values in μM, FDH) [µM] | IC50 (JMJD2E; Figure 2, high iron 25 µM Fe(II), read-out: IC50 values in μM, High Fe) [µM] | qHTS Data: jmjd2e fas2.5um Curve comment (JMJD2E; Table S1, low iron 2.5 µM FAS) | IC50 (JMJD2E (KDM4E); Figure 3, substituted 8-hydroxyquinolines against JMJD2E, read-out: IC50 /μM (qHTS IC50, FDH-coupled assay)) [µM]
CCOC(=O)c1ccc(CC(=O)c2ccc(O)c(O)c2O)o1 [compound 24797852] | 3.16 | Inactive | 10 | 1.41 |  |  |  |  |  |  | 
CC(C)c1ccccc1NC(=O)CNCCc1ccc(C(F)(F)F)cc1.O=C(O)C(=O)O [compound 26661422] | 3.16 | Inactive |  | 28.2 | Inactive |  |  |  |  |  | 
O=[N+]([O-])c1ccc(O)c(/C=N/Nc2ccc(Cl)nn2)c1 [compound 17416266] | 5.62 | Inactive |  | 5.62 | Inactive |  |  |  |  |  | 
COc1cc(/C=N/Nc2nncn2N)ccc1OCc1c(C)no[n+]1[O-] [compound 26657989] | 0.5 | Inactive |  | 4.47 | Inactive |  |  |  |  |  | 
COc1ccc(NC(=O)CC2Sc3ncnn3C2=O)cc1 (stereo not drawn) [compound 7968088] | 2 |  | 12.6 | 1.78 |  | 0.28 |  |  |  |  | 
Cl.NC(CO)C(=O)NNCc1ccc(O)c(O)c1O (stereo not drawn) [compound 855739] | 2.24 | Inactive | 3.98 | 1.78 |  |  |  |  |  |  | 
CC(C)c1ccc(N2C(=O)CC(Sc3ncn[nH]3)C2=O)cc1 (stereo not drawn) [compound 14726804] | 1.58 |  | 19.9 | 2.51 | Poor quality curve | 0.25 |  |  |  |  | 
C/C(=N\Nc1ccc2nncn2n1)c1ccccn1 [compound 26664046] | 10 | Poor quality curve | 8.91 | 8.91 |  | 35.5 |  |  |  |  | 
O=C(OCC1OC(OC(=O)c2cc(O)c(O)c(OC(=O)c3cc(O)c(O)c(O)c3)c2)[C@@H](OC(=O)c2cc(O)c(O)c(OC(=O)c3cc(O)c(O)c(O)c3)c2)C(OC(=O)c2cc(O)c(O)c(OC(=O)c3cc(O)c(O)c(O)c3)c2)C1OC(=O)c1cc(O)c(O)c(OC(=O)c2cc(O)c(O)c(O)c2)c1)c1cc(O)c(O)c(OC(=O)c2cc(O)c(O)c(O)c2)c1 (stereo partly drawn) [compound 26748902] | 0.28 |  | 15.8 | 0.16 |  | 7.94 |  |  |  |  | 
CCOc1cccc(C(=O)c2ccc(O)c(O)c2O)c1 [compound 26749554] | 10 | Inactive | 8.91 | 4.47 |  |  |  |  |  |  | 
O=C1C=CC(=O)c2c(O)cccc21 [compound 26749198] | 7.08 | Inactive | 14.1 | 5.01 |  |  |  |  |  |  | 
O=c1cc2c(=O)oc3cc(O)c(O)oc3c2c(O)c1O [compound 26666750] | 3.98 | Inactive | 15.8 | 1.78 |  |  |  |  |  |  | 
C=C1c2cccc(O)c2C(O)=C2C(=O)[C@]3(O)C(O)=C(C(N)=O)C(=O)C(N(C)C)C3C(O)C12.Cl (stereo partly drawn) [compound 26748477] | 8.91 | Inactive | 2.51 | 12.6 | Poor quality curve |  |  |  |  |  | 
CC(C)C1C(=O)C(C(N)=O)=C(O)[C@@]2(O)C(=O)C3=C(O)c4c(O)ccc(N(C)C)c4C[C@H]3C[C@@H]12.Cl (stereo partly drawn) [compound 50106632] | 10 | Inactive | 12.6 | 12.6 | Poor quality curve |  |  |  |  |  | 
Cc1ccc(N2C(=O)CC(Sc3ncn[nH]3)C2=O)cc1 (stereo not drawn) [compound 14726735] | 2.51 |  | 31.6 | 2 | Poor quality curve | 0.32 |  |  |  |  | 
Oc1ccc(NCc2ccccc2OCc2ccccc2F)cc1 [SID 17385881] |  |  |  |  |  |  | 5 | > 57 | 14.1 |  | 
O=C(CCc1ccccc1)NCC(=O)N/N=C/c1ccc(O)cc1O [compound 26660953] | 6.31 | Poor quality curve | 4.47 | 4.47 |  | 17.8 |  |  |  |  | 
Oc1ccc(NCc2cccc(OCc3ccccc3)c2)cc1 [compound 24795995] | 4.47 | Inactive | 35.5 | 14.1 |  |  |  |  |  |  | 

Compound | IC50 (JMJD2E (KDM4E); [2]) [µM] | qHTS Data: jmjd2e fdh CurveClass ([1]; Table S1, FDH counterscreen) | IC50 (JMJD2E; [3]) [µM] | IC50 (JMJD2E; [4]) [µM] | qHTS Data: jmjd2e fas20um CurveClass (JMJD2E; Table S1, high iron) | IC50 [1, 5] [µM] | IC50 (JMJD2E (KDM4E); Figure 2, 100 nM JMJD2E, 10 µM FAS, read-out: IC50 values in μM, qHTS) [µM] | IC50 ([1]; Figure 2, 0.025 U/mL FDH, 10 µM formaldehyde, read-out: IC50 values in μM, FDH) [µM] | IC50 (JMJD2E; Figure 2, high iron 25 µM Fe(II), read-out: IC50 values in μM, High Fe) [µM] | qHTS Data: jmjd2e fas2.5um Curve comment (JMJD2E; Table S1, low iron 2.5 µM FAS) | IC50 (JMJD2E (KDM4E); Figure 3, substituted 8-hydroxyquinolines against JMJD2E, read-out: IC50 /μM (qHTS IC50, FDH-coupled assay)) [µM]
O=c1c(O)cccc2cc(O)c(O)c(O)c12 [compound 26665710] | 7.94 | Poor quality curve | 12.6 | 2.24 |  | 6.31 |  |  |  |  | 
C[C@@](N)(Cc1ccc(O)c(O)c1)C(=O)O [compound 11112415] | 4.47 | Inactive | 2 | 4.47 |  |  |  |  |  |  | 
O=c1c(O)c(Br)ccc2c(Br)c(O)c(O)c(O)c12 [compound 50110019] | 7.08 | Poor quality curve |  | 5.01 | Inconclusive | 28.2 |  |  |  |  | 
O=C1C=C(O)c2cccc(O)c2C1=O [compound 26724134] | 7.94 | Inactive | 19.9 | 14.1 |  |  |  |  |  | Poor quality curve | 
Cc1cc(C(=O)NNC(=S)Nc2ccccc2)nn1C [compound 24796479] | 8.91 | Inactive | 7.94 | 7.08 |  |  |  |  |  |  | 
Cc1cc(C(=O)NNC(=S)NC(=O)/C=C/c2ccccc2Cl)n[nH]1 [compound 14736067] | 7.94 | Inactive |  | 8.91 | Inactive |  |  |  |  |  | 
COc1ccc(-n2c(C)cc(/C=N/Nc3nnc(C)n3N)c2C)cc1.Cl [compound 22416865] | 0.71 | Poor quality curve | 5.01 | 5.01 |  | 28.2 |  |  |  |  | 
Cl.NCCc1ccc(O)c(O)c1 [compound 50106387] | 12.6 | Inactive | 3.98 | 11.2 |  |  |  |  |  |  | 
Cc1ccnc(NC(c2cccnc2)c2ccc3cccnc3c2O)c1 (stereo not drawn) [compound 24794739] | 5.62 | Poor quality curve | 14.1 | 11.2 |  | 0.03 |  |  |  |  | 
Cc1cccc(OCC(=O)NCC(=O)N/N=C/c2ccc(O)cc2O)c1 [compound 26671311] | 3.16 | Poor quality curve |  | 4.47 | Inactive | 0.25 |  |  |  |  | 
CNCCc1ccc(O)c(O)c1.Cl [compound 50106160] | 14.1 | Poor quality curve | 11.2 | 4.47 |  | 3.16 |  |  |  |  | 
CCN1/C(=C\c2ccc3ccccc3[n+]2CC)Sc2cc(C)ccc21.[I-] [compound 24782097] | 1.41 | Poor quality curve | 14.1 | 17.8 | Poor quality curve | 22.4 |  |  |  | Poor quality curve | 
COc1cccc(O)c1O [compound 26749778] | 7.94 | Inactive | 15.8 | 4.47 |  |  |  |  |  |  | 
O=C1CC(Sc2ncn[nH]2)C(=O)N1c1ccccc1 (stereo not drawn) [compound 14730480] | 2.24 |  |  | 2.51 | Inactive | 0.32 |  |  |  |  | 
CN(C)c1ccnc(C(=O)O)c1 [compound 24815512] | 2.82 | Inactive | 15.8 |  | Poor quality curve |  |  |  |  | Inactive | 
O=c1c(O)c(-c2ccc(O)c(O)c2)oc2c(O)c(O)cc(O)c12 [compound 26750048] | 2.82 | Inactive |  | 1.41 | Inactive |  |  |  |  |  | 
O=Cc1ccc(O)c2ncccc12 [compound 26664581] | 3.16 | Inactive | 56.2 | 7.08 | Poor quality curve |  |  |  |  |  | 3.2
O=C(CC1Sc2ncnn2C1=O)Nc1ccc(Cl)cc1 (stereo not drawn) [compound 24795544] | 1.58 |  | 7.94 | 2 |  | 0.25 |  |  |  |  | 
